By IC50 is commonly meant the midpoint of a concentration-inhibition curve. Usually inhibition stands for the relative decrease from the control value, in per cent. A lower inhibition goes with little suppression.

This is an account of results in patent US8134015B2, “Compound inhibiting in vivo phosphorous transport and medicine containing the same” (Kyowa Hakko Kirin Co., Ltd., priority 2003, dated 2012).

Where only a bound is given, the exact number is not on record here.

In the first test the target is T1, rat NaPi-2b (Rattus norvegicus, UniProt Q9JJ09).
T1 construct: expressed in transfected cells; host or cells: Xenopus oocytes injected with cRNA
T1 sequence (Q9JJ09 1-695): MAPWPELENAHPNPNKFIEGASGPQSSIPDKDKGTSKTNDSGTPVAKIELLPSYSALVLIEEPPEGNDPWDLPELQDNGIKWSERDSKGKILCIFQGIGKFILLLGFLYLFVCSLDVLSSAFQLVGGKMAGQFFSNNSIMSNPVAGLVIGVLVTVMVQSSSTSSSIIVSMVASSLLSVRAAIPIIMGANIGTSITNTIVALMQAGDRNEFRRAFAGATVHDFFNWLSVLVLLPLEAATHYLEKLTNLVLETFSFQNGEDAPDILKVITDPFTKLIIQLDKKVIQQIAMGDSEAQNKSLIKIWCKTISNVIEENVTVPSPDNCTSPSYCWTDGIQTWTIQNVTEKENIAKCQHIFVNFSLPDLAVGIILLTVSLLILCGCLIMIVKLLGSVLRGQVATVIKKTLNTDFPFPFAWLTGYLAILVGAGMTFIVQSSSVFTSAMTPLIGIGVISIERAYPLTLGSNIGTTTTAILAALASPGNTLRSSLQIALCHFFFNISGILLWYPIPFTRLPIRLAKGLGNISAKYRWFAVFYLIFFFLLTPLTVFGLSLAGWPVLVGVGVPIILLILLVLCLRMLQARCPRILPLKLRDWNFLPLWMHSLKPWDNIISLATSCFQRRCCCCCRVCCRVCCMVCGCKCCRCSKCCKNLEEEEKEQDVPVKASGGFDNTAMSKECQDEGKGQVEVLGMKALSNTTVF
Put plainly: Sodium-dependent phosphate uptake of Xenopus oocytes which expressed NaPi-2b (32P). It is filed as cell-based. The settings on record: Xenopus oocytes expressing rat NaPi-2b, 32P radioactive phosphorus; read-out: IC50 (phosphate uptake inhibitory activity). An outline of the steps: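 Oocytes injected with rat NaPi-2b cRNA, cultured 2 d, then 32P uptake measured with compound. Values: % inhibition at 300 and 100 μM, both from one inhibition curve.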
Consider `COc1cccc(/C=N/NC(=O)c2cc(Cl)ccc2NC(=O)c2cccc(CSc3nnnn3CCN(C)C)c2)c1` [Compound 468, N-[4-Chloro-2-(3-methoxy-benzylidene-hydrazinocarbonyl)-phenyl]-3-[1-(2-dimethylamino-ethyl)-1H-tetrazol-5-ylsulfanylmethyl]-benzamide], for which the 50% inhibitory concentration (IC50) amounted to 22.4 µM.

Take `CCN(CC)CCN(C)Cc1cccc(C(=O)Nc2ccc(I)cc2C(=O)N/N=C/c2ccc(C)c(C)c2)c1` [Compound 476, 3-{[(2-Diethylamino-ethyl)-methyl-amino]-methyl}-N-[2-(3,4-dimethyl-benzylidene-hydrazinocarbonyl)-4-iodo-phenyl]-benzamide]: the concentration for half-maximal inhibition (IC50) was < 3 µM.

On to `COc1ccccc1/C=C/C=N/NC(=O)c1cc(Br)ccc1NC(=O)c1cccnc1` [Compound 352, N-{4-Bromo-2-[3-(2-methoxy-phenyl)-allylidene-hydrazinocarbonyl]-phenyl}-nicotinamide], for which the 50% inhibitory concentration (IC50) stood at 13 µM.

Turning to `Cc1ccc(/C=N/NC(=O)c2cc(Br)ccc2NC(=O)c2ccco2)cc1` [Compound 154, Furan-2-carboxylic acid [4-bromo-2-(4-methyl-benzylidene-hydrazinocarbonyl)-phenyl]-amide], the IC50 came out at 2.37 µM.

As for `O=C(Nc1ccc(N2CCCCC2)cc1C(=O)N/N=C/c1ccc(F)cc1)c1cccc(CN2CCN(CCO)CC2)c1` [Compound 866, N-[2-(4-Fluoro-benzylidene-hydrazinocarbonyl)-4-piperidin-1-yl-phenyl]-3-[4-(2-hydroxy-ethyl)-piperazin-1-ylmethyl]-benzamide], the half-inhibitory concentration (IC50) is 1.92 µM.

As to `COc1ccc(C(=O)Nc2ccccc2C(=O)N/N=C/c2ccc(C)o2)cc1OC` [Compound 22, 3,4-Dimethoxy-N-[2-(5-methyl-furan-2-ylmethylene-hydrazinocarbonyl)-phenyl]-benzamide], the half-maximal inhibitory concentration (IC50) came out at 26.7 µM.

For `COc1ccc(C(=O)Nc2ccccc2C(=O)N/N=C/c2cccc(Cl)c2)cc1OC` [Compound 35, N-[2-(3-Chloro-benzylidene-hydrazinocarbonyl)-phenyl]-3,4-dimethoxy-benzamide], the IC50 was 3.23 µM.

Consider `COc1ccc(C(=O)Nc2ccccc2C(=O)N/N=C/c2cccc(Oc3cccc(C(F)(F)F)c3)c2)cc1OC` [Compound 54, 3,4-Dimethoxy-N-{2-[3-(3-trifluoromethyl-phenoxy)-benzylidene-hydrazinocarbonyl]-phenyl}-benzamide], for which the half-inhibitory concentration (IC50) stood at 6.45 µM.

Take `Cc1ccc(/C=N/NC(=O)c2cc(Cl)ccc2NC(=O)c2ccccn2)cc1` [Compound 362, Pyridin-2-carboxylic acid [4-chloro-2-(4-methyl-benzylidene-hydrazinocarbonyl)-phenyl]-amide]: the 50% inhibitory concentration (IC50) was < 1 µM.

As to `CCN(CC)CCNCc1cccc(C(=O)Nc2scc(C)c2C(=O)N/N=C/c2ccc(C)cc2)c1` [Compound 582, 3-[(2-Diethylamino-ethylamino)-methyl]-N-[4-methyl-3-(4-methyl-benzylidene-hydrazinocarbonyl)-thiophen-2-yl]-benzamide], the IC50 is < 3 µM.

As to `COc1ccc(/C=N/NC(=O)c2cc(N3CCCC3)ccc2NC(=O)c2cccc(CSCCO)c2)cc1` [Compound 921, 3-(2-Hydroxy-ethylsulfanylmethyl)-N-[2-(4-methoxy-benzylidene-hydrazinocarbonyl)-4-pyrrolidin-1-yl-phenyl]-benzamide], the IC50 amounted to 1.22 µM.

Take `Cc1ccc(/C=N/NC(=O)c2cc(Cl)ccc2NC(=O)c2cccc(CSCCS(=O)(=O)O)c2)cc1` [Compound 693, 2-{3-[4-Chloro-2-(4-methyl-benzylidene-hydrazinocarbonyl)-phenylcarbamoyl]-benzylsulfanyl}-ethanesulfonic acid]: the IC50 was determined as 70.2 µM.

Turning to `CCN(CC)CCSCc1cccc(C(=O)Nc2ccc(N3CCCCC3)cc2C(=O)N/N=C/c2ccc(C)c(C)c2)c1` [Compound 876, 3-(2-Diethylamino-ethylsulfanylmethyl)-N-[2-(3,4-dimethyl-benzylidene-hydrazinocarbonyl)-4-piperidin-1-yl-phenyl]-benzamide], the IC50 is < 3 µM.

Turning to `O=C(Nc1ccc(Cl)cc1C(=O)N/N=C/c1cccc(F)c1)c1cccc(CSCCS(=O)(=O)O)c1` [Compound 691, 2-{3-[4-Chloro-2-(3-fluoro-benzylidene-hydrazinocarbonyl)-phenylcarbamoyl]-benzylsulfanyl}-ethanesulfonic acid], the half-maximal inhibitory concentration (IC50) came to 97 µM.

For the molecule `CCN(CC)CCN(C)Cc1cccc(C(=O)Nc2c(C)csc2C(=O)N/N=C/c2ccc(C)c(C)c2)c1` [Compound 342, 3-{[(2-Diethylamino-ethyl)-methyl-amino]-methyl}-N-[2-(3,4-dimethyl-benzylidene-hydrazinocarbonyl)-4-methyl-thiophen-3-yl]-benzamide], the half-maximal inhibitory concentration (IC50) was 32.6 µM.

For the molecule `O=C(Nc1sc2c(c1C(=O)N/N=C/c1ccc(Cl)c(C(F)(F)F)c1)CCCC2)c1cccc(CN2CCN(CCO)CC2)c1` [Compound 625, N-[3-(4-Chloro-3-trifluoromethyl-benzylidene-hydrazinocarbonyl)-4,5,6,7-tetrahydro-benzo[b]thiophen-2-yl]-3-[4-(2-hydroxy-ethyl)-piperazin-1-ylmethyl]-benzamide], the half-inhibitory concentration (IC50) was < 3 µM.

Take `COc1cccc(/C=N/NC(=O)c2cc(Cl)ccc2NC(=O)c2cccc(CN(C)CCO)c2)c1` [Compound 400, N-[4-Chloro-2-(3-methoxy-benzylidene-hydrazinocarbonyl)-phenyl]-3-{[(2-hydroxy-ethyl)-methyl-amino]-methyl}-benzamide]: the half-maximal inhibitory concentration (IC50) is < 0.3 µM.

For the molecule `COc1ccc(C(=O)Nc2cc(Cl)ccc2C(=O)N/N=C/c2cccc(O)c2)cc1OC` [Compound 75, N-[5-Chloro-2-(3-hydroxy-benzylidene-hydrazinocarbonyl)-phenyl]-3,4-dimethoxy-benzamide], the IC50 stood at 12.8 µM.

With `O=C(Nc1ccc(Br)cc1C(=O)N/N=C/c1cccc(F)c1)c1cccc(CSc2ccncc2)c1` [Compound 195, N-[4-Bromo-2-(3-fluoro-benzylidene-hydrazinocarbonyl)-phenyl]-3-(pyridin-4-ylsulfanylmethyl)-benzamide], the IC50 was 0.98 µM.

As for `O=C(Nc1sc2c(c1C(=O)N/N=C/c1cccc(F)c1)CCCC2)c1cccc(CN2CCC(N3CCCCC3)CC2)c1` [Compound 618, 3-[1,4′]Bipiperidinyl-1′-ylmethyl-N-[3-(3-fluoro-benzylidene-hydrazinocarbonyl)-4,5,6,7-tetrahydro-benzo[b]thiophen-2-yl]-benzamide], the 50% inhibitory concentration (IC50) came out at 4.25 µM.

For `Cc1ccc(/C=N/NC(=O)c2cc(Cl)ccc2NC(=O)c2ccncc2)cc1C` [Compound 193, N-[4-Chloro-2-(3,4-dimethyl-benzylidene-hydrazinocarbonyl)-phenyl]-isonicotinamide], the IC50 worked out at 4.21 µM.

In the case of `CCN(CCO)Cc1ccc(C(=O)Nc2ccc(Cl)cc2C(=O)N/N=C/c2cccc(OC)c2)cc1` [Compound 438, N-[4-Chloro-2-(3-methoxy-benzylidene-hydrazinocarbonyl)-phenyl]-4-{[ethyl-(2-hydroxy-ethyl)-amino]-methyl}-benzamide], the IC50 was 26.3 µM.

Consider `COc1ccc(C(=O)Nc2ccc(Br)cc2C(=O)N/N=C/c2ccccc2C)cc1OC` [Compound 30, N-[4-Bromo-2-(2-methyl-benzylidene-hydrazinocarbonyl)-phenyl]-3,4-dimethoxy-benzamide], for which the half-maximal inhibitory concentration (IC50) is 7.86 µM.

Staying with this test, now noted: phosphate uptake, oocytes expressing rat NaPi-2b; 300 μM, determined from inhibition curve.
As to `CN(CCCNCc1ccc(C(=O)Nc2ccc(Br)cc2C(=O)N/N=C/c2cccc(F)c2)cc1)c1ccccc1` [Compound 760, N-[4-Bromo-2-(3-fluoro-benzylidene-hydrazinocarbonyl)-phenyl]-4-{[3-(methyl-phenyl-amino)-propylamino]-methyl}-benzamide], the inhibition at 300 µM worked out at 73.3%.

Take `Cc1cccc(/C=N/NC(=O)c2cc(Cl)ccc2NC(=O)c2cccc(CN(C)CCCCCCN(C)Cc3cccc(C(=O)Nc4ccc(Cl)cc4C(=O)N/N=C/c4cccc(C)c4)c3)c2)c1` [Compound 705, N1-[4-Chloro-2-({2-[(E)-1-(3-methylphenyl)methylidene]hydrazino}carbonyl}phenyl}-3-{[{6-[(3-{[4-chloro-2-({2-[(E)-1-(3-methylphenyl)methylidene]hydrazino}carbonyl}-anilino}carbonyl}benzyl}(methyl)amino)hexyl)(methyl)amino]methyl]-benzamide]: at 300 µM the inhibition was 44.7%.

For the molecule `CCN(CC)CCNCc1cccc(C(=O)Nc2c(C)csc2C(=O)N/N=C/c2ccc(C)c(C)c2)c1` [Compound 536, 3-[(2-Diethylamino-ethylamino)-methyl]-N-[2-(3,4-dimethyl-benzylidene-hydrazinocarbonyl)-4-methyl-thiophen-3-yl]-benzamide], testing at 300 µM gave an inhibition of 88.2%.

Take `Cc1cccc(/C=N/NC(=O)c2ccccc2NC(=O)c2cccnc2)c1` [Compound 131, N-[2-(3-Methyl-benzylidene-hydrazinocarbonyl)-phenyl]-nicotinamide]: the inhibition at 300 µM was 32.4%.
